In patent US20260130932A1, “NOVEL COMBINATION OF RIFAXIMIN AND CLARITHROMYCIN FOR TREATING MULTIDRUG-RESISTANT MYCOBACTERIUM ABSCESSUS” (priority 2022, published 2026):
“And” between values parts separate entries of the source, which are not always exact repeats. Equal entries are not always repeated. Structures can show the parent of a compound that is named as a salt.

Assays:
[1] = test system: M. abscessus strain M422; assay: Single-concentration assay with and without clarithromycin (hit validation); type: cell-based, Mycobacterium abscessus; conditions: for % inhibition with 0.5 μg/ml Clr: compound combined with clarithromycin; for % inhibition with compound alone: without clarithromycin
Experimental: (§1) For checkerboard synergy assay, 3 M. abscessus strains were used: M. abscessus ATCC 19977, M. abscessus strains M422 and M110, while bactericidal activity determination and the zebrafish study were performed with M. abscessus ATCC 19977. All three strains of M. abscessus harbor the inducible clarithromycin resistance-conferring erm(41) T28 sequevar. M. abscessus strain M422 and M110 were provided by Dr. Jeanette Teo, National University Hospital, Singapore (Chew K L, et al., 2017. J Med Microbiol 66: 1443-1447). M. abscessus ATCC 19977 and M. avium ATCC 700898 were acquired from American Type Culture Collection (ATCC).
Primary screening was carried out in 96-well flat-bottom Corning Costar cell culture plates at 50 μM compound along with 4 μg/ml of Clr in a starting inoculum of pre-induced M. abscessus cells at OD600 of 0.005 in a final volume of 100 μl. The plates were put in an airtight container with moist paper towels and incubated for 4 d at 30° C. The cultures in the wells were resuspended before OD600 was read in a BioTek Synergy 4 plate reader.
To start the validation process, the top 10 compounds with >90% growth inhibition were chose to perform a single-concentration assay, with and without clarithromycin. Finally, the inventors obtained 7 compounds that potentiated Clr efficacy.

[2] = test system: M. avium ATCC 700898 (uninduced); assay: Checkerboard synergy assay; type: cell-based, Mycobacterium avium; conditions: Mycobacterium avium, ATCC700898; read-out: MIC90
Experimental: (§2) With Rfx identified as the best potentiator of Clr activity, the interaction between Rfx and Clr was investigated by a checkerboard synergy approach using a broth microdilution method performed in 96-well plates. To provide a classification of the combined antibiotics based on the fractional inhibitory concentration index (FICI), this assay applied the combination of Clr and Rfx in concentrations of 0-64 μg/ml by 2-fold serial dilutions along the abscissa and ordinate, respectively. The FICI was calculated by summing the FIC of Rfx and the FIC of Clr. FIC of Clr is the MIC of Clr in the presence of Rfx divided by MIC of Clr alone. FIC of Rfx was similarly calculated.
As both M. abscessus and M. avium are the main organism groups causing pulmonary NTM (Lim A Y H, et al., 2018. BMC Pulm Med 18 (1):85; Tan Y, et al., 2018. BMC Pulm Med 18 (1): 168), the inventors tested the combination of Clr and Rfx against M. avium in the checkerboard assay as well. With a FICI of 0.563, the interaction between Clr and Rfx was additive in M. avium.

[3] = test system: M. abscessus ATCC 19977; assay: Zebrafish embryo infection model; type: in vivo, zebrafish (Denio rerio); conditions: Clr alone up to 74.8 μg/ml (100 μM), immersion for 4 days (FIG. 6A)
From the text: To visualize the bacterial infection in the zebrafish (Denio rerio), a fluorescent strain of M. abscessus ATCC 19977 containing pJKD2893:mScarlet was generated. The pJKD2893 plasmid backbone was a kind gift from Professor Timothy Stinear. The gene expressing the fluorescent protein mScarlet was amplified from μMRE135-mScarlet (Addgene #118489, Mitja Remus-Emsermann lab). The amplification product was annealed by Gibson cloning with the pJKD2893 backbone amplified from a sample of pJKD2893. The resulting plasmid, termed pJKD2893:mScarlet, was electroporated into M. abscessus ATCC 19977 at a culture density equivalent to OD600˜20 using a BioRad GenePulser Xcell set at 2.5 kV, 25 uF, and 1,000Ω. […] Colonies carrying the plasmid were identified by their fluorescence. […]
Preparation of M. abscessus Inoculum and Zebrafish Infections Cultures of M. abscessus-pJKD2893:mScarlet in 7H9 media supplemented with 50 μg/ml kanamycin were grown to OD600 of 0.2-0.3 and concentrated to OD600 of 1 in 0.1% PBS-Tween-20. […] The actual CFU in the inoculum was determined a posteriori by injecting into 50 μl 0.1% PBS-Tween-20 and streaking on a plate. […]
Larvae were harvested to assess the bacterial load at 5 d post-infection using a slightly modified version of the Kremer lab method (Bernut et al., Antimicrob Agents Chemother 58: 4054-4063). […] Fluorescent colonies were counted after 5-6 days. […]

[4] = test system: M. abscessus ATCC 19977, M. abscessus strains M422 and M110; assay: Checkerboard synergy assay, statements on all 3 M. abscessus strains; type: cell-based, Mycobacterium abscessus; conditions: pre-induced M. abscessus strains (FIG. 4, Table 2)
Experimental: as §1, §2
(§3) To characterize the interaction between Clr and Rfx, checkerboard synergy assays were performed on pre-induced Clr-resistant M. abscessus. The fractional inhibitory concentration index (FICI) obtained from the checkerboard assay defines whether the interaction between the two compounds is either synergistic (FICI≤0.5), additive (0.5<FICI≤1.0), indifferent (1.0<FICI≤4.0), or antagonistic (FICI >4.0) (Noel D J, Keevil C W, Wilks S A. 2021. MBio 12).

[5] = test system: M. abscessus ATCC 19977 (pre-induced); assay: microbe, parasite or virus in culture; type: cell-based, Mycobacterium abscessus
Experimental: The FICI was calculated by summing the FIC of Rfx and the FIC of Clr. FIC of Clr is the MIC of Clr in the presence of Rfx divided by MIC of Clr alone. FIC of Rfx was similarly calculated.
as §3

[6] = clarithromycin 0 μg/ml, partner antibiotic 1 μg/ml
[7] = clarithromycin 0 μg/ml, partner antibiotic 2 μg/ml
[8] = clarithromycin 0 μg/ml, partner antibiotic 4 μg/ml
[9] = clarithromycin 0 μg/ml, partner antibiotic 8 μg/ml
[10] = clarithromycin 0 μg/ml, partner antibiotic 16 μg/ml
[11] = clarithromycin 0 μg/ml, partner antibiotic 32 μg/ml
[12] = clarithromycin 0 μg/ml, partner antibiotic 64 μg/ml

OB1OCc2cc(F)ccc21 [AN-2690]
% inhibition with 0.5 μg/ml Clr [1]: 96.7% | % inhibition with compound alone [1]: 80.4%

CC(=O)OC[C@H]1O[C@@H]([S-])[C@H](OC(C)=O)[C@@H](OC(C)=O)[C@@H]1OC(C)=O.CCP(CC)CC.[Au+] [Auranofin]
% inhibition with 0.5 μg/ml Clr [1]: 98.5% | % inhibition with compound alone [1]: 86.9%

CO/N=C(\C(=O)N[C@@H]1C(=O)N2C(C(=O)O)=C(COC(C)=O)CS[C@H]12)c1csc(N)n1 [Cefotaxime (sodium salt), Cefotaxime]
% inhibition with 0.5 μg/ml Clr [1]: 98.5% | % inhibition with compound alone [1]: 86.7%

CC[C@H]1OC(=O)[C@H](C)[C@@H](O[C@H]2C[C@@](C)(OC)[C@@H](O)[C@H](C)O2)[C@H](C)[C@@H](O[C@@H]2O[C@H](C)C[C@H](N(C)C)[C@H]2O)[C@](C)(OC)C[C@@H](C)C(=O)[C@H](C)[C@@H](O)[C@]1(C)O [Clarithromycin, clarithromycin]
MIC90 [2]: < 0.1 µg/mL | effect on bacterial load [3]: unable to reduce bacterial load | reduction of the MIC of Clr when used in combination with Rfx [4]: at least 16 fold | Percentage of bacterial growth ([5]; clarithromycin 1 μg/ml, partner antibiotic 0 μg/ml): 80.1% and 116.9% and 119.5% and 108.3% and 97.8% and 90.2% and 95.5% | Percentage of bacterial growth ([5]; clarithromycin 2 μg/ml, partner antibiotic 0 μg/ml): 80.6% and 99.5% and 102.2% and 98.9% and 80.2% and 84.8% and 96.8% | Percentage of bacterial growth ([5]; clarithromycin 4 μg/ml, partner antibiotic 0 μg/ml): 86.2% and 113.2% and 103.4% and 117.2% and 82.7% and 78.4% and 93.3% | Percentage of bacterial growth ([5]; clarithromycin 8 μg/ml, partner antibiotic 0 μg/ml): 76.2% and 102.8% and 93.2% and 108.1% and 71.4% and 97.4% and 92.9% | Percentage of bacterial growth ([5]; clarithromycin 16 μg/ml, partner antibiotic 0 μg/ml): 64.0% and 109.5% and 86.1% and 101.8% and 72.3% and 89.6% and 89.7% | Percentage of bacterial growth ([5]; clarithromycin 32 μg/ml, partner antibiotic 0 μg/ml): 77.4% and 84.3% and 83.8% and 115.7% and 59.0% and 98.2% and 95.4%

CO[C@@H]1[C@@H](OC(N)=O)[C@@H](O)[C@H](Oc2ccc3c(O)c(NC(=O)c4ccc(O)c(CC=C(C)C)c4)c(=O)oc3c2C)OC1(C)C [Novobiocin (Sodium), Novobiocin]
% inhibition with 0.5 μg/ml Clr [1]: 99.7% | % inhibition with compound alone [1]: 84.1%

CC(=O)NC[C@H]1CN(c2ccc(N3CCSCC3)c(F)c2)C(=O)O1 [Sutezolid]
% inhibition with 0.5 μg/ml Clr [1]: 92.8% | % inhibition with compound alone [1]: 80.4%

Cn1nnc(-c2ccc(-c3ccc(N4C[C@H](CO)OC4=O)cc3F)cn2)n1 [Tedizolid]
% inhibition with 0.5 μg/ml Clr [1]: 99.1% | % inhibition with compound alone [1]: 85.2%

C[C@@H](O)[C@H]1C(=O)N2C(C(=O)O)=C(SCCN=CN)C[C@H]12 [imipenem]
Percentage of bacterial growth [5, 6]: 86.9% | Percentage of bacterial growth [5, 7]: 93.4% | Percentage of bacterial growth [5, 8]: 58.5% | Percentage of bacterial growth [5, 9]: 78.5% | Percentage of bacterial growth [5, 10]: 62.1% | Percentage of bacterial growth [5, 11]: 38.3% | Percentage of bacterial growth [5, 12]: 16.6%

COc1c(N2C[C@@H]3CCCN[C@@H]3C2)c(F)cc2c(=O)c(C(=O)O)cn(C3CC3)c12 [moxifloxacin]
Percentage of bacterial growth [5, 6]: 107.8% | Percentage of bacterial growth [5, 7]: 122.8% | Percentage of bacterial growth [5, 8]: 86.4% | Percentage of bacterial growth [5, 9]: 51.2% | Percentage of bacterial growth [5, 10]: 13.4% | Percentage of bacterial growth [5, 11]: 7.4% | Percentage of bacterial growth [5, 12]: 0.6%

CN(C)c1cc(NC(=O)CNC(C)(C)C)c(O)c2c1C[C@H]1C[C@H]3[C@H](N(C)C)C(O)=C(C(N)=O)C(=O)[C@@]3(O)C(O)=C1C2=O [tigecycline]
concentration at which synergistic effects with clarithromycin are exhibited ([5]; Table 3): ≥ 16 µg/mL | Percentage of bacterial growth [5, 6]: 64.2% | Percentage of bacterial growth [5, 7]: 74.2% | Percentage of bacterial growth [5, 8]: 77.8% | Percentage of bacterial growth [5, 9]: 67.0% | Percentage of bacterial growth [5, 10]: 39.3% | Percentage of bacterial growth [5, 11]: 22.4% | Percentage of bacterial growth [5, 12]: 10.1% | FICI ([5]; clarithromycin with a known partner antibiotic, each 0-64 μg/ml): 0.25

CN[C@H](CC(C)C)C(=O)N[C@H]1C(=O)N[C@@H](CC(N)=O)C(=O)N[C@H]2C(=O)N[C@H]3C(=O)N[C@H](C(=O)N[C@H](C(=O)O)c4cc(O)cc(O)c4-c4cc3ccc4O)[C@H](O)c3ccc(c(Cl)c3)Oc3cc2cc(c3O[C@@H]2O[C@H](CO)[C@@H](O)[C@H](O)[C@H]2O[C@H]2C[C@](C)(N)[C@H](O)[C@H](C)O2)Oc2ccc(cc2Cl)[C@H]1O [vancomycin]
Percentage of bacterial growth [5, 6]: 103.7% | Percentage of bacterial growth [5, 7]: 102.0% | Percentage of bacterial growth [5, 8]: 105.7% | Percentage of bacterial growth [5, 9]: 91.7% | Percentage of bacterial growth [5, 10]: 90.8% | Percentage of bacterial growth [5, 11]: 86.6% | Percentage of bacterial growth [5, 12]: 83.1%

oritavancin diphosphate
Percentage of bacterial growth [5, 6]: 68.0% | Percentage of bacterial growth [5, 7]: 59.1% | Percentage of bacterial growth [5, 8]: 51.1% | Percentage of bacterial growth [5, 9]: 46.8% | Percentage of bacterial growth [5, 10]: 40.9% | Percentage of bacterial growth [5, 11]: 32.2% | Percentage of bacterial growth [5, 12]: 26.1%
